{
  "source": "patent US10888090B2",
  "about": "“Plant growth promoters and methods of using them” (KING ABDULLAH UNIVERSITY OF SCIENCE AND TECHNOLOGY, priority 2015, dated 2021)",
  "key": {"[1]": {"tested_on": "Arabidopsis (Col-0)", "experiment": "Lateral root density in Arabidopsis, single and combined treatment with auxin", "type": "in vivo", "settings": "3-OH-β-apo-13-carotenone 2.5 μM, auxin 100 nM; 9 days", "method": "FIG. 15: Combined 3-OH-β-apo-13-Carotenone and auxin treatment of Arabidopsis has a synergetic effect on lateral root density. 3-OH-β-apo-13-carotenone and auxin (indole-3-acetic acid) were applied at 2.5 μM and 100 nM, concentrations, respectively. Arabidopsis (Col-0) seeds were germinated in/MS-plates (with 0.5% sucrose) containing individual and both compounds together and grown in 16 light/8 dark period, 22° C. for 9 days. Graph represents both actual density and in percentage. *P<0.05; Student's t test; **P<0.05; Student's t test. Also investigated was possible effect of combining 3-OH-β-apo-13-carotenone with auxin."}, "[2]": {"tested_on": "Leaf explants of 12-day-old seedlings", "experiment": "Leaf-derived adventitious roots (leaf explants of 12-day-old seedlings)", "type": "in vivo, Arabidopsis thaliana", "description": "FIG. 13: 3-OH-β-apo-13-Carotenone treatment increases the number of leaf-derived adventitious roots (Leaf explants of 12-day-old seedlings). […] Therefore, we tested whether β-apo-13-carotenone can also induce adventitious root formation in the model plant Arabidopsis thaliana. As shown in FIGS. 12A and 12B, the compound exerted a clear induction on the number of hypocotyl-derived adventitious roots that usually arise spontaneously after dark-light transition. Highest activity—around 50% increase, was obtained with 2.5 μM concentrations (FIGS. 12A and 12B)."}, "[3]": {"tested_on": "Arabidopsis", "experiment": "Number of lateral roots in Arabidopsis (14 days old plants)", "type": "in vivo", "method": "FIG. 14: 3-OH-β-apo-13-Carotenone treatment of Arabidopsis increases the number of lateral roots in a concentration-dependent manner (14 days old plants). 0-5 μM corresponds to different concentrations of synthetic 3-OH-β-apo-13-Carotenone. Puri corresponds to synthetic 3-OH-β-apo-13-Carotenone after HPLC purification. […] Therefore, we tested whether β-apo-13-carotenone can also induce adventitious root formation in the model plant Arabidopsis thaliana. As shown in FIGS. 12A and 12B, the compound exerted a clear induction on the number of hypocotyl-derived adventitious roots that usually arise spontaneously after dark-light transition. Highest activity—around 50% increase, was obtained with 2.5 μM concentrations (FIGS. 12A and 12B). […] To ensure that the biological activity observed is caused by 3-OH-β-apo-13-carotenone and not by a possible contamination with a different compound that may be included during the organic synthesis, HPLC was used to isolate highly pure 3-OH-β-apo-13-carotenone, and the purified compound was applied."}, "[4]": {"tested_on": "rice seedlings (cultivar 'Dongjin')", "experiment": "Rice seedlings grown hydroponically with the compound: crown roots and biomass", "type": "in vivo", "settings": "hydroponic", "method": "FIG. 10: 3-OH-β-apo-13-Carotenone treatment increases the number of crown roots in rice. Seeds of cultivar ‘Dongjin’ were pre-germinated in water for 2 days followed by transfer to filter papers placed in petri dishes containing half-strength liquid Murashige and Skoog (MS) medium. The cultures were incubated at 24° C. for one week. Thereafter, the seedlings were grown hydroponically in half-strength modified Hoagland nutrient solution containing different concentrations of 3-OH-β-apo-13-carotenone for 2 weeks in the greenhouse. The medium was changed twice a week, data were recorded 2 weeks after treatment. (FIG. 10A) Number of crown roots of rice seedlings 2 weeks after treatment. Each value represents the mean of 10 seedlings. Error bar indicates standard error. Asterisks denote a significant difference from the mock treatment by student t-test (* P<0.05; ** P<0.01). FIG. 11: Root and shoot biomass of rice seedlings treated with 3-OH-β-apo-13-Carotenone. One week-old seedlings of cultivar ‘Dongjin’ were grown hydroponically in half-strength modified Hoagland nutrient solution containing different concentrations of 3-OH-β-apo-13-Carotenone for two weeks in the greenhouse. The medium was changed twice a week. After two weeks, roots and shoots were collected separately and dried in an incubator at 80° C. for 3 days. Dried samples were weighed using a Mettler Toledo balance. […]"}, "[5]": {"tested_on": "Arabidopsis (Col-0)", "experiment": "Primary root length in Arabidopsis", "type": "in vivo", "settings": "2.5 μM, 9 days", "method": "FIG. 16: 3-OH-β-apo-13-Carotenone treatment of Arabidopsis increases the length of primary root. Arabidopsis (Col-0) seeds were germinated on/MS-plates (with 0.5% sucrose) containing 3-OH-β-apo-13-carotenone and grown in 16 light/8 dark period, 22° C. for 9 days. *P<0.05; Student's t-test; **P<0.05; Student's t test. 3-OH-β-apo-13-carotenone was applied at 2.5 μM concentration. Also investigated was the effect of the compound on primary root length."}, "[6]": {"experiment": "Greenhouse experiments", "type": "in vivo"}, "[7]": {"tested_on": "Arabidopsis (col-0) seedlings", "experiment": "Hypocotyl-derived adventitious root formation in Arabidopsis seedlings", "type": "in vivo, Arabidopsis thaliana", "settings": "2.5 μM; arising after dark-light transition", "description": "FIG. 12A: 3-OH-β-apo-13-Carotenone treatment increases the number of hypocotyl-derived adventitious roots in a concentration-dependent manner (14 days old plants). For a better resolution, see FIG. 12B. FIG. 12B: 3-OH-β-apo-13-Carotenone treatment increases the number of hypocotyl-derived adventitious roots. (A) 4-day-old Arabidopsis (col-0) seedlings were transferred to 3-OH-β-apo-13-Carotenone containing plates at the indicated concentrations and grown for 10 days. Red arrows indicate adventitious roots on hypocotyl (B) Average number of adventitious roots. Seeds were germinated on 1 MS medium with 0.5% sucrose (pH 5.7) and grown for 4 days in the dark. Error bars represent means±S.E. Asterisks indicate significant differences as calculated using a standard Student's t-test (*P<0.005, ** <0.001). […] Therefore, we tested whether β-apo-13-carotenone can also induce adventitious root formation in the model plant Arabidopsis thaliana. As shown in FIGS. 12A and 12B, the compound exerted a clear induction on the number of hypocotyl-derived adventitious roots that usually arise spontaneously after dark-light transition. Highest activity—around 50% increase, was obtained with 2.5 μM concentrations (FIGS. 12A and 12B)."}, "[8]": {"tested_on": "root hairs", "settings": "at high concentration; cited from earlier work"}},
  "data": [
    {"smiles": "CC(=O)/C=C/C=C(C)/C=C/C1=C(C)CC(O)CC1(C)C", "note": "(stereo not drawn) [3-OH-β-apo-13-carotenone]", "values": [
      {"measurement": "increase in lateral root density, single treatment", "setting": "[1]", "value": "around 20%"},
      {"measurement": "number of leaf-derived adventitious roots", "setting": "[2]", "value": "noticeable increase (duplication)"},
      {"measurement": "number of lateral roots", "setting": "[3]; 2.5 μM, synthetic compound", "value": "clearly increased the number of lateral roots"},
      {"measurement": "lateral root number", "setting": "[3]; compound after HPLC purification", "value": "increase in lateral root number was detected similar to that observed before"},
      {"measurement": "number of crown roots", "setting": "[4]; micromolar concentrations, 2 weeks after treatment", "value": "obvious increase in the number of crown roots"},
      {"measurement": "increase in root and shoot biomass", "setting": "[4]; two weeks, dried samples", "value": "around 30%"},
      {"measurement": "primary root length", "setting": "[5]", "value": "small but significant increase"},
      {"measurement": "growth and flowering in greenhouse experiments", "setting": "[6]", "value": "growth-promoting effects and early flowering"},
      {"measurement": "increase in number of hypocotyl-derived adventitious roots (highest activity)", "setting": "[7]", "value": "around 50%"}
    ]},
    {"smiles": "O=C(O)Cc1c[nH]c2ccccc12", "note": "[auxin, indole-3-acetic acid, reference compound]", "values": [
      {"measurement": "increase in lateral root density, single treatment", "setting": "[1]", "value": "~30", "unit": "%"}
    ]},
    {"smiles": "CC(=O)/C=C/C=C(C)/C=C/C1=C(C)CCCC1(C)C", "note": "[d'orenone, β-apo-13-carotenone]", "values": [
      {"measurement": "tip growth of root hairs", "setting": "[8]", "value": "block tip growth of root hairs"}
    ]}
  ]
}
